Patent US20150080337A1, “N-CYCLOALKYL-N-[(TRISUBSTITUTEDSILYLPHENYL)METHYLENE]-(THIO)CARBOXAMIDE DERIVATIVES” (BAYER CROPSCIENCE, priority 2012, published 2015)

Legend:
[1] = test system: Alternaria brassicae; assay: In vivo preventive test on Alternaria brassicae (leaf spot on radish); conditions: 500 ppm of active ingredient; radish plants sprayed 24 hours before contamination; grading 6 days after contamination vs control plants
Description: (§1) The active ingredients tested are prepared by homogenization in a mixture of acetone/tween/DMSO, and then diluted with water to obtain the desired active material concentration.
Radish plants (“Pernod Clair” variety), sown in starter cups on a 50/50 peat soil pozzolana substrate and grown at 17° C., are treated at the cotyledon stage by spraying with the active ingredient prepared as described above. Plants, used as controls, are treated with the mixture of acetone/tween/DMSO/water not containing the active material.
After 24 hours, the plants are contaminated by spraying the cotyledons with an aqueous suspension of Alternaria brassicae spores (50 000 spores per mL). The spores are collected from a 15-day-old culture. The contaminated radish plants are incubated at 20° C. and at 100% relative humidity.
Grading (% of efficacy) is carried out 6 days after the contamination, in comparison with the control plants.
Under these conditions, good (at least 70%) to total protection is observed at a dose of 500 ppm of active ingredient with the following compounds from table D: […]

[2] = log P by HPLC on reversed-phase column (C 18), EEC Directive 79/831 Annex V.A8; assay type: physicochemical; conditions: Table 1, compounds of formula (I); HPLC C 18, 40° C., 0.1% aqueous formic acid and acetonitrile, gradient 10% to 90% acetonitrile
Description: In table 1, the log P values were determined in accordance with EEC Directive 79/831 Annex V.A8 by HPLC (High Performance Liquid Chromatography) on a reversed-phase column (C 18), using the method described below:
Temperature: 40° C.; Mobile phases: 0.1% aqueous formic acid and acetonitrile; linear gradient from 10% acetonitrile to 90% acetonitrile.
Calibration was carried out using unbranched alkan-2-ones (comprising 3 to 16 carbon atoms) with known log P values (determination of the log P values by the retention times using linear interpolation between two successive alkanones). lambda-max-values were determined using UV-spectra from 200 nm to 400 nm and the peak values of the chromatographic signals.
In table 2, M+H (Apcl+) and log P are defined as for table 1.

[3] = test system: Sphaerotheca fuliginea; assay: In vivo test on Sphaerotheca fuliginea (cucurbits powdery mildew); conditions: 500 ppm of active ingredient; gherkin plants sprayed 24 hours before contamination; grading 12 days after contamination vs control plants
Description: (§2) The active ingredients tested are prepared by homogenization in a mixture of acetone/tween/DMSO and then diluted with water to obtain the desired active material concentration.
Gherkin plants (“Vert petit de Paris” variety), sown in starter cups on a 50/50 peat soil-pozzolana substrate and grown at 24° C., are treated at the Z11 cotyledon stage by spraying with the active ingredient prepared as described above. Plants, used as controls, are treated with the mixture of acetone/tween/DMSO/water not containing the active material.
After 24 hours, the plants are contaminated by spraying the cotyledons with an aqueous suspension of Sphaerotheca fuliginea spores (100 000 spores per mL). The spores are collected from infected plants. The contaminated gherkin plants are incubated at about 20° C. and at 70-80% relative humidity.
(§3) Grading (% of efficacy) is carried out 12 days after the contamination, in comparison with the control plants.
Under these conditions, good (at least 70%) to total protection is observed at a dose of 500 ppm of active ingredient with the following compounds from table A: […]

[4] = test system: Septoria tritici; assay: In vivo preventive test on Septoria tritici (wheat); conditions: 500 ppm of active ingredient; wheat plants sprayed 24 hours before contamination; grading 24 days after contamination vs control plants
Description: as §1
(§4) Wheat plants (“Scipion” variety), sown in starter cups on a 50/50 peat soil pozzolana substrate and grown at 22° C., are treated at the 1 leaf stage (10 cm height) by spraying with the active ingredient prepared as described above. Plants, used as controls, are treated with the mixture of acetone/tween/DMSO/water not containing the active material.
After 24 hours, the plants are contaminated by spraying the leaves with an aqueous suspension of cryopreserved Septoria tritici spores (500 000 spores per mL). The contaminated wheat plants are incubated for 72 hours at 18° C. and at 100% relative humidity, and then for 21 days at 90% relative humidity.
Grading (% of efficacy) is carried out 24 days after the contamination, in comparison with the control plants.
Under these conditions, good (at least 70%) to total protection is observed at a dose of 500 ppm of active ingredient with the following compounds from table F: […]

[5] = test system: Puccinia recondita; assay: In vivo test on Puccinia recondita (brown rust); conditions: 500 ppm of active ingredient; wheat plants sprayed 24 hours before contamination; grading 12 days after contamination vs control plants
Description: as §1, §4
(§5) After 24 hours, the plants are contaminated by spraying the leaves with an aqueous suspension of Puccinia recondita spores (100 000 spores per mL). The spores are collected from an infected plant and are suspended in water containing 2.5 mL/L of Tween 80 at 10%. The contaminated wheat plants are incubated for 24 hours at 20° C. and at 100% relative humidity, and then for 10 days at 20° C. and at 70-80% relative humidity.
as §3
Under these conditions, good (at least 70%) to excellent (at least 90%) protection is observed at a dose of 500 ppm of active ingredient with the following compounds from table C: […]

[6] = test system: Uromyces appendiculatus; assay: In vivo preventive test on Uromyces appendiculatus (bean rust); conditions: 500 ppm of active ingredient; bean plants sprayed 24 hours before contamination; grading 11 days after contamination vs control plants
Description: as §1
Bean plants (“Saxa” variety), sown in starter cups on a 50/50 peat soil pozzolana substrate and grown at 24° C., are treated at the 2 leaf stage (9 cm height) by spraying with the active ingredient prepared as described above. Plants, used as controls, are treated with the mixture of acetone/tween/DMSO/water not containing the active material.
as §5, with “of Uromyces appendiculatus” for “of Puccinia recondita”, “spores (150” for “spores (100”, “from” for “from an”, “infected plants” for “infected plant”, “contaminated bean” for “contaminated wheat”
Grading (% of efficacy) is carried out 11 days after the contamination, in comparison with the control plants.
Under these conditions, good (at least 70%) to total protection is observed at a dose of 500 ppm of active ingredient with the following compounds from table G: […]

[7] = test system: Pyrenophora teres; assay: In vivo test on Pyrenophora teres (barley net blotch); conditions: 500 ppm of active ingredient; barley plants sprayed 24 hours before contamination; grading 14 days after contamination vs control plants
Description: as §1
Barley plants (“Plaisant” variety), sown in starter cups on a 50/50 peat soil pozzolana substrate and grown at 22° C., are treated at the 1 leaf stage (10 cm height) by spraying with the active ingredient prepared as described above. Plants, used as controls, are treated with the mixture of acetone/tween/DMSO/water not containing the active material.
After 24 hours, the plants are contaminated by spraying the leaves with an aqueous suspension of Pyrenophora teres spores (12 000 spores per mL). The spores are collected from a 12-day-old culture. The contaminated barley plants are incubated for 48 hours at 20° C. and at 100% relative humidity, and then for 12 days at 20° C. at 70-80% relative humidity.
Grading (% of efficacy) is carried out 14 days after the contamination, in comparison with the control plants.
Under these conditions, good (at least 70%) to excellent (at least 90%) protection is observed at a dose of 500 ppm of active ingredient with the following compounds from table B: […]

[8] = test system: Botrytis cinerea; assay: In vivo preventive test on Botrytis cinerea (grey mould); conditions: 500 ppm of active ingredient; gherkin plants sprayed 24 hours before contamination; grading 4 to 5 days after contamination vs control plants
Description: as §2
Gherkin plants (“Vert petit de Paris” variety), sown in starter cups on a 50/50 peat soil pozzolana substrate and grown at 24° C., are treated at the Z11 cotyledon stage by spraying with the active ingredient prepared as described above. Plants, used as controls, are treated with the mixture of acetone/tween/DMSO/water not containing the active material.
After 24 hours, the plants are contaminated by spraying the cotyledons with an aqueous suspension of cryopreserved Botrytis cinerea spores (50 000 spores per mL). The spores are suspended in a nutrient solution composed of 10 g/L of PDB, 50 g/L of D-Fructose, 2 g/L of NH4NO3 and 1 g/L of KH2PO4. The contaminated gherkin plants are incubated at 17° C. and at 90% relative humidity.
Grading (% of efficacy) is carried out 4 to 5 days after the contamination, in comparison with the control plants.
Under these conditions, good (at least 70%) is observed at a dose of 500 ppm of active ingredient with the following compound from table E: […]

| SMILES | Efficacy [1] [%] | logP [2] | Efficacy [3] [%] | Efficacy [4] [%] | Efficacy [5] [%] | Efficacy [6] [%] | Efficacy [7] [%] | Efficacy [8] [%] |
| --- | --- | --- | --- | --- | --- | --- | --- | --- |
| Cn1nc(C(F)F)c(C(=S)N(Cc2ccccc2[Si](C)(C)c2ccc(Cl)cc2)C2CC2)c1F [I.8] | 88 | 3.09 | 100 | 97 | 88 | 97 | – | – |
| Cn1cc(C(=O)N(Cc2ccccc2[Si](C)(C)c2ccc(Oc3ccccc3)cc2)C2CC2)c(C(F)F)n1 [I.20] | – | 5.31 | 83 | 75 | – | 89 | 79 | – |
| Cn1nc(C(F)F)c(C(=O)N(Cc2ccccc2[Si](C)(C)c2cccc3ccccc23)C2CC2)c1F [I.25] | 80 | 5.19 | 100 | 100 | – | 86 | – | – |
| Cn1nc(C(F)F)c(C(=O)N(Cc2ccccc2[Si](C)(C)c2ccc(Oc3ccccc3)cc2)C2CC2)c1F [I.19] | – | 5.68 | 100 | 100 | 93 | 96 | 97 | – |
| C[Si](C)(c1ccccc1CN(C(=O)c1ccsc1I)C1CC1)c1cccc2ccccc12 [I.29] | – | 5.84 | – | – | – | – | – | 75 |
| Cn1nc(C(F)F)c(C(=O)N(Cc2ccccc2[Si](C)(C)c2ccccc2)C2CC2)c1F [I.4] | – | 4.78 | 100 | 100 | 92 | 100 | – | – |
